According to US20150353495A1 (PORTOLA PHARMACEUTICALS, INC., priority 2010, published 2015):

What was measured:
Format in all cases: biochemical
[1] = target: T1, JAK3 (Homo sapiens, UniProt P52333); assay: Z'-LYTE kinase assay JAK3
T1 construct: 5 μl of catalytic domain recombinant Kinase enzyme+Tyr peptide substrate (Invitrogen, CA); purchased Invitrogen
Outline: (§1)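 Z′-LYTE FRET, Tyr6 peptide, recombinant catalytic domain + ATP, 1 h RT, 1% DMSO final, duplicates; protease development 1 h RT; fluorescence read.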

[2] = target: T2, JAK1 (Homo sapiens, UniProt P23458); assay: Z'-LYTE kinase assay JAK1
T2 construct: 5 μl of catalytic domain recombinant Kinase enzyme+Tyr peptide substrate (Invitrogen, CA); purchased Invitrogen
T2 sequence (P23458 875-1153 limits assumed): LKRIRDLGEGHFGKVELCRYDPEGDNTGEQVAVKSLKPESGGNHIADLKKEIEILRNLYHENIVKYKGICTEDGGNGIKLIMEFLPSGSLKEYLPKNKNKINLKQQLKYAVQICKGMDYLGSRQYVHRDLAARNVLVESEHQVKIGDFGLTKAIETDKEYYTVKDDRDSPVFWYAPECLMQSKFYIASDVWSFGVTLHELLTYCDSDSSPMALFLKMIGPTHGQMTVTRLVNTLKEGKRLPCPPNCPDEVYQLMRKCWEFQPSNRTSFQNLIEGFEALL
Outline: as §1

[3] = target: T3, TYK2 (Homo sapiens, UniProt P29597); assay: Z'-LYTE kinase assay TYK2
T3 construct: 5 μl of catalytic domain recombinant Kinase enzyme+Tyr peptide substrate (Invitrogen, CA); purchased Invitrogen
T3 sequence (P29597 897-1176 limits assumed): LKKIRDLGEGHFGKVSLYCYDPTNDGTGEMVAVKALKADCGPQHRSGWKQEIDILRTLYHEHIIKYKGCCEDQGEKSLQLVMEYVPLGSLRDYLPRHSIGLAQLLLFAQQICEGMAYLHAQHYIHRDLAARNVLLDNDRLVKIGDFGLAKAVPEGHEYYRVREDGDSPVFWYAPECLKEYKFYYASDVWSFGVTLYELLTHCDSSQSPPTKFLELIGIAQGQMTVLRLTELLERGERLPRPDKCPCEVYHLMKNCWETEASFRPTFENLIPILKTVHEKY
Outline: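 IC50 derived by 4-parameter logistic fit of percent substrate phosphorylation relative to uninhibited wells. Tyr6 peptide phosphorylated by recombinant TYK2 catalytic domain for 1 h at room temperature (1% DMSO), cleaved by development protease 1 h, FRET emission ratio 445/520 nm.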

T1 sequence (P52333 822-1111 limits assumed): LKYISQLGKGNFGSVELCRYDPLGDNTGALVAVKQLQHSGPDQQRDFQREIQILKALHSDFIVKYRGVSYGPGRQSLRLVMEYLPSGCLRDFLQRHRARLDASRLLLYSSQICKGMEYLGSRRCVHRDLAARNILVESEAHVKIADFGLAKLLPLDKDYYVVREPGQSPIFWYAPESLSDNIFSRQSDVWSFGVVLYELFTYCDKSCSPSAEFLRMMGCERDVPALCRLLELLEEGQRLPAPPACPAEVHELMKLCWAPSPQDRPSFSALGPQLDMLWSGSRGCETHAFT

IC50 [1] [nM]	IC50 [2] [nM]	IC50 [3] [nM]	SMILES
10 to 100	100 to 1000	100 to 1000	CC(=O)N1CCN(c2ccc(Nc3cc(NC4CC4)c(C(N)=O)cn3)cc2)CC1 [Example 2]
1 to 10	100 to 1000	100 to 1000	CC(=O)N1CCN(c2ccc(Nc3cc(NCc4cccc(F)c4)c(C(N)=O)cn3)cc2)CC1 [Example 229]
